# The CheMixHub viscosity set
# ± gives the uncertainty stated by the source.
# Assay: xn = mol fraction of the nth substance listed
structure (smiles),measurement,setting,value
CCCCCCO + c1ccccc1,viscosity,"293.15 K, 100 kPa, x2 = 0.0814",4.394 ± 0.22 mPa·s
same,viscosity,"293.15 K, 100 kPa, x2 = 0.1623",3.612 ± 0.18 mPa·s
same,viscosity,"293.15 K, 100 kPa, x2 = 0.2401",3.045 ± 0.15 mPa·s
same,viscosity,"293.15 K, 100 kPa, x2 = 0.3536",2.371 ± 0.12 mPa·s
same,viscosity,"293.15 K, 100 kPa, x2 = 0.4411",1.932 ± 0.098 mPa·s
same,viscosity,"293.15 K, 100 kPa, x2 = 0.5516",1.507 ± 0.076 mPa·s
same,viscosity,"293.15 K, 100 kPa, x2 = 0.6465",1.218 ± 0.062 mPa·s
same,viscosity,"293.15 K, 100 kPa, x2 = 0.7441",0.979 ± 0.05 mPa·s
same,viscosity,"293.15 K, 100 kPa, x2 = 0.8425",0.828 ± 0.042 mPa·s
same,viscosity,"293.15 K, 100 kPa, x2 = 0.9324",0.728 ± 0.037 mPa·s
same,viscosity,"298.15 K, 101 kPa, x1 = 0.04",0.615 ± 0.016 mPa·s
same,viscosity,"298.15 K, 101 kPa, x1 = 0.078",0.633 ± 0.017 mPa·s
same,viscosity,"298.15 K, 101 kPa, x1 = 0.12",0.663 ± 0.018 mPa·s
same,viscosity,"298.15 K, 101 kPa, x1 = 0.16",0.709 ± 0.019 mPa·s
same,viscosity,"298.15 K, 101 kPa, x1 = 0.34",0.98 ± 0.026 mPa·s
same,viscosity,"298.15 K, 101 kPa, x1 = 0.43",1.195 ± 0.031 mPa·s
same,viscosity,"298.15 K, 101 kPa, x1 = 0.53",1.505 ± 0.039 mPa·s
same,viscosity,"298.15 K, 101 kPa, x1 = 0.75",2.444 ± 0.064 mPa·s
same,viscosity,"303 K, 101.33 kPa, x1 = 0.1001",0.6115 ± 0.016 mPa·s
same,viscosity,"303 K, 101.33 kPa, x1 = 0.2002",0.7018 ± 0.017 mPa·s
same,viscosity,"303 K, 101.33 kPa, x1 = 0.3",0.8271 ± 0.019 mPa·s
same,viscosity,"303 K, 101.33 kPa, x1 = 0.4002",0.9916 ± 0.022 mPa·s
same,viscosity,"303 K, 101.33 kPa, x1 = 0.5004",1.198 ± 0.026 mPa·s
same,viscosity,"303 K, 101.33 kPa, x1 = 0.6012",1.498 ± 0.033 mPa·s
same,viscosity,"303 K, 101.33 kPa, x1 = 0.6985",1.883 ± 0.043 mPa·s
same,viscosity,"303 K, 101.33 kPa, x1 = 0.8",2.387 ± 0.059 mPa·s
same,viscosity,"303 K, 101.33 kPa, x1 = 0.8982",2.971 ± 0.079 mPa·s
same,viscosity,"303.15 K, 100 kPa, x2 = 0.0814",3.292 ± 0.17 mPa·s
same,viscosity,"303.15 K, 100 kPa, x2 = 0.1623",2.773 ± 0.14 mPa·s
same,viscosity,"303.15 K, 100 kPa, x2 = 0.2401",2.333 ± 0.12 mPa·s
same,viscosity,"303.15 K, 100 kPa, x2 = 0.3536",1.832 ± 0.093 mPa·s
same,viscosity,"303.15 K, 100 kPa, x2 = 0.4411",1.514 ± 0.077 mPa·s
same,viscosity,"303.15 K, 100 kPa, x2 = 0.5516",1.175 ± 0.06 mPa·s
same,viscosity,"303.15 K, 100 kPa, x2 = 0.6465",0.951 ± 0.048 mPa·s
same,viscosity,"303.15 K, 100 kPa, x2 = 0.7441",0.797 ± 0.041 mPa·s
same,viscosity,"303.15 K, 100 kPa, x2 = 0.8425",0.684 ± 0.035 mPa·s
same,viscosity,"303.15 K, 100 kPa, x2 = 0.9324",0.604 ± 0.031 mPa·s
same,viscosity,"313 K, 101.33 kPa, x1 = 0.1001",0.5329 ± 0.015 mPa·s
same,viscosity,"313 K, 101.33 kPa, x1 = 0.2002",0.6064 ± 0.016 mPa·s
same,viscosity,"313 K, 101.33 kPa, x1 = 0.3",0.7078 ± 0.017 mPa·s
same,viscosity,"313 K, 101.33 kPa, x1 = 0.4002",0.8581 ± 0.019 mPa·s
same,viscosity,"313 K, 101.33 kPa, x1 = 0.5004",0.9873 ± 0.021 mPa·s
same,viscosity,"313 K, 101.33 kPa, x1 = 0.6012",1.194 ± 0.025 mPa·s
same,viscosity,"313 K, 101.33 kPa, x1 = 0.6985",1.49 ± 0.032 mPa·s
same,viscosity,"313 K, 101.33 kPa, x1 = 0.8",1.852 ± 0.041 mPa·s
same,viscosity,"313 K, 101.33 kPa, x1 = 0.8982",2.274 ± 0.052 mPa·s
same,viscosity,"313.15 K, 100 kPa, x2 = 0.0814",2.463 ± 0.12 mPa·s
same,viscosity,"313.15 K, 100 kPa, x2 = 0.1623",2.077 ± 0.11 mPa·s
same,viscosity,"313.15 K, 100 kPa, x2 = 0.2401",1.772 ± 0.089 mPa·s
same,viscosity,"313.15 K, 100 kPa, x2 = 0.3536",1.428 ± 0.072 mPa·s
same,viscosity,"313.15 K, 100 kPa, x2 = 0.4411",1.201 ± 0.061 mPa·s
same,viscosity,"313.15 K, 100 kPa, x2 = 0.5516",0.954 ± 0.048 mPa·s
same,viscosity,"313.15 K, 100 kPa, x2 = 0.6465",0.789 ± 0.04 mPa·s
same,viscosity,"313.15 K, 100 kPa, x2 = 0.7441",0.661 ± 0.034 mPa·s
same,viscosity,"313.15 K, 100 kPa, x2 = 0.8425",0.581 ± 0.03 mPa·s
same,viscosity,"313.15 K, 100 kPa, x2 = 0.9324",0.525 ± 0.027 mPa·s
same,viscosity,"323 K, 101.33 kPa, x1 = 0.1001",0.4717 ± 0.014 mPa·s
same,viscosity,"323 K, 101.33 kPa, x1 = 0.2002",0.53 ± 0.015 mPa·s
same,viscosity,"323 K, 101.33 kPa, x1 = 0.3",0.613 ± 0.015 mPa·s
same,viscosity,"323 K, 101.33 kPa, x1 = 0.4002",0.7007 ± 0.017 mPa·s
same,viscosity,"323 K, 101.33 kPa, x1 = 0.5004",0.8259 ± 0.018 mPa·s
same,viscosity,"323 K, 101.33 kPa, x1 = 0.6012",0.9863 ± 0.021 mPa·s
same,viscosity,"323 K, 101.33 kPa, x1 = 0.6985",1.209 ± 0.025 mPa·s
same,viscosity,"323 K, 101.33 kPa, x1 = 0.8",1.467 ± 0.03 mPa·s
same,viscosity,"323 K, 101.33 kPa, x1 = 0.8982",1.768 ± 0.037 mPa·s
same,viscosity,"323.15 K, 100 kPa, x2 = 0.0814",1.934 ± 0.098 mPa·s
same,viscosity,"323.15 K, 100 kPa, x2 = 0.1623",1.654 ± 0.084 mPa·s
same,viscosity,"323.15 K, 100 kPa, x2 = 0.2401",1.411 ± 0.071 mPa·s
same,viscosity,"323.15 K, 100 kPa, x2 = 0.3536",1.135 ± 0.057 mPa·s
same,viscosity,"323.15 K, 100 kPa, x2 = 0.4411",0.962 ± 0.049 mPa·s
same,viscosity,"323.15 K, 100 kPa, x2 = 0.5516",0.781 ± 0.04 mPa·s
same,viscosity,"323.15 K, 100 kPa, x2 = 0.6465",0.656 ± 0.033 mPa·s
same,viscosity,"323.15 K, 100 kPa, x2 = 0.7441",0.568 ± 0.029 mPa·s
same,viscosity,"323.15 K, 100 kPa, x2 = 0.8425",0.5 ± 0.026 mPa·s
same,viscosity,"323.15 K, 100 kPa, x2 = 0.9324",0.458 ± 0.024 mPa·s
CCOCC + O=S(=O)(O)O,viscosity,"303.15 K, 101 kPa, x1 = 0.00853",206.9 ± 6.5 mPa·s
same,viscosity,"303.15 K, 101 kPa, x1 = 0.01735",203 ± 6.3 mPa·s
same,viscosity,"303.15 K, 101 kPa, x2 = 0.05093",2.73 ± 0.02 mPa·s
same,viscosity,"303.15 K, 101 kPa, x2 = 0.07611",3.096 ± 0.022 mPa·s
same,viscosity,"303.15 K, 101 kPa, x2 = 0.1322",4.36 ± 0.03 mPa·s
same,viscosity,"303.15 K, 101 kPa, x2 = 0.1739",5.79 ± 0.04 mPa·s
same,viscosity,"303.15 K, 101 kPa, x2 = 0.2412",9.824 ± 0.066 mPa·s
same,viscosity,"303.15 K, 101 kPa, x2 = 0.3269",21.94 ± 0.14 mPa·s
same,viscosity,"303.15 K, 101 kPa, x2 = 0.3684",34.8 ± 0.24 mPa·s
same,viscosity,"303.15 K, 101 kPa, x2 = 0.3933",47.52 ± 0.36 mPa·s
same,viscosity,"303.15 K, 101 kPa, x2 = 0.4239",67.01 ± 0.56 mPa·s
same,viscosity,"303.15 K, 101 kPa, x2 = 0.4513",87.88 ± 1.2 mPa·s
same,viscosity,"303.15 K, 101 kPa, x2 = 0.5139",134.5 ± 3 mPa·s
same,viscosity,"303.15 K, 101 kPa, x2 = 0.5527",153.7 ± 3.8 mPa·s
same,viscosity,"303.15 K, 101 kPa, x2 = 0.5826",161.5 ± 4.2 mPa·s
same,viscosity,"303.15 K, 101 kPa, x2 = 0.636",160.6 ± 4.1 mPa·s
same,viscosity,"303.15 K, 101 kPa, x2 = 0.6604",156.7 ± 3.9 mPa·s
same,viscosity,"303.15 K, 101 kPa, x2 = 0.729",133.8 ± 2.9 mPa·s
same,viscosity,"303.15 K, 101 kPa, x2 = 0.8088",127.2 ± 2.6 mPa·s
same,viscosity,"303.15 K, 101 kPa, x2 = 0.8194",127.2 ± 2.6 mPa·s
same,viscosity,"303.15 K, 101 kPa, x2 = 0.891",138.2 ± 3.1 mPa·s
same,viscosity,"303.15 K, 101 kPa, x2 = 0.9089",145.2 ± 3.4 mPa·s
same,viscosity,"303.15 K, 101 kPa, x2 = 0.9478",169.2 ± 4.5 mPa·s
same,viscosity,"303.15 K, 101 kPa, x2 = 0.9658",187.2 ± 5.4 mPa·s
same,viscosity,"303.15 K, 101 kPa, x2 = 0.9684",189.7 ± 5.6 mPa·s
same,viscosity,"303.15 K, 101 kPa, x2 = 0.9737",196.3 ± 5.9 mPa·s
